Values quoted from earlier work in patent publication US12036329B2, “Mucoadhesive dispersion nanoparticle system and method for production the same” (LEAD BIOTHERAPEUTICS LTD, priority 2018, dated 2024).

Test system: alpha-adrenergic receptor
Details: generally accepted

Cc1cc(C(C)(C)C)cc(C)c1CC1=NCCN1 [xylometazoline]
Duration of effect: 5 to 6 h
